Assay results: the supplement of paper PMC10307832

Assays:
Test in all cases: relative viability (nuclei count vs DMSO), 5 days (fraction); higher = more cells survive
[1] = test system: LXF-289
Procedure, shortened: (§1)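 Relative viability was taken as the ratio of nuclei in treated wells to nuclei in vehicle wells. Lung cancer cell lines in 1536-well plates received compounds by pin tool one day after seeding, either one drug alone or a fixed anchor-drug dose plus five library-drug doses (not always all listed) in √10 steps. Nuclei were counted on 4× images after 5 days of treatment, and values are medians of duplicate plates.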

[2] = test system: EMC-BAC-2
Procedure, shortened: as §1

[3] = test system: NCI-H2126
Procedure, shortened: as §1

[4] = test system: NCI-H1650
Procedure, shortened: as §1

[5] = test system: NCI-H2023
Procedure, shortened: as §1

[6] = test system: NCI-H1993
Procedure, shortened: as §1

[7] = test system: H3255
Procedure, shortened: as §1

[8] = test system: HOP-62
Procedure, shortened: as §1

[9] = test system: NCI-H661
Procedure, shortened: as §1

[10] = test system: NCI-H322M
Procedure, shortened: as §1

[11] = test system: SW 1573
Procedure, shortened: as §1

[12] = test system: NCI-H727
Procedure, shortened: as §1

[13] = test system: NCI-H2347
Procedure, shortened: as §1

[14] = test system: SK-LU-1
Procedure, shortened: as §1

[15] = test system: NCI-H2009
Procedure, shortened: as §1

[16] = test system: NCI-H358
Procedure, shortened: as §1

[17] = test system: BEN
Procedure, shortened: as §1

[18] = test system: NCI-H2342
Procedure, shortened: as §1

[19] = test system: PC-14
Procedure, shortened: as §1

[20] = test system: NCI-H1915
Procedure, shortened: as §1

[21] = test system: NCI-H2085
Procedure, shortened: as §1

[22] = test system: NCI-H647
Procedure, shortened: as §1

[23] = test system: LCLC-97TM1
Procedure, shortened: as §1

With `Clc1ccc(Nc2nnc(Cc3ccncc3)c3ccccc23)cc1` [Vatalanib] + CC(=O)c1c(C)c2cnc(Nc3ccc(N4CCNCC4)cn3)nc2n(C2CCCC2)c1=O [Palbociclib] (partner 0.5 µM) the relative viability ([1]; first compound 0.04 µM) was 0.611, the relative viability ([1]; first compound 0.1265 µM) was 0.544 and the relative viability ([1]; first compound 0.4 µM) was 0.599. For the same compound, the relative viability ([1]; first compound 1.265 µM) was 0.585, the relative viability ([1]; first compound 4 µM) was 0.556 and the relative viability ([2]; first compound 0.04 µM) was 0.545. For the same compound, the relative viability ([2]; first compound 0.1265 µM) was 0.524, the relative viability ([2]; first compound 0.4 µM) was 0.563 and the relative viability ([2]; first compound 4 µM) was 0.512. The relative viability ([3]; first compound 0.04 µM) was 0.314, the relative viability ([3]; first compound 0.1265 µM) was 0.34 and the relative viability ([3]; first compound 0.4 µM) was 0.383. It also gave a relative viability ([3]; first compound 1.265 µM) of 0.335, a relative viability ([3]; first compound 4 µM) of 0.363 and a relative viability ([4]; first compound 0.04 µM) of 0.364. For the same compound, the relative viability ([4]; first compound 0.1265 µM) was 0.384, the relative viability ([4]; first compound 0.4 µM) was 0.299 and the relative viability ([4]; first compound 1.265 µM) was 0.33. The relative viability ([4]; first compound 4 µM) was 0.312, the relative viability ([5]; first compound 0.04 µM) was 0.375 and the relative viability ([5]; first compound 0.1265 µM) was 0.344. It also gave a relative viability ([5]; first compound 0.4 µM) of 0.439, a relative viability ([5]; first compound 1.265 µM) of 0.393 and a relative viability ([5]; first compound 4 µM) of 0.366. It also gave a relative viability ([6]; first compound 0.04 µM) of 0.872, a relative viability ([6]; first compound 0.1265 µM) of 0.653 and a relative viability ([6]; first compound 0.4 µM) of 0.814. For the same compound, the relative viability ([6]; first compound 1.265 µM) was 0.562, the relative viability ([6]; first compound 4 µM) was 0.528 and the relative viability ([7]; first compound 0.04 µM) was 0.308. For the same compound, the relative viability ([7]; first compound 0.1265 µM) was 0.273, the relative viability ([7]; first compound 0.4 µM) was 0.325 and the relative viability ([7]; first compound 1.265 µM) was 0.296. For the same compound, the relative viability ([7]; first compound 4 µM) was 0.309, the relative viability ([8]; first compound 0.04 µM) was 0.459 and the relative viability ([8]; first compound 0.1265 µM) was 0.436. The relative viability ([8]; first compound 0.4 µM) was 0.417, the relative viability ([8]; first compound 1.265 µM) was 0.45 and the relative viability ([8]; first compound 4 µM) was 0.481. For the same compound, the relative viability ([9]; first compound 0.04 µM) was 0.411, the relative viability ([9]; first compound 0.1265 µM) was 0.387 and the relative viability ([9]; first compound 0.4 µM) was 0.441. For the same compound, the relative viability ([9]; first compound 1.265 µM) was 0.397, the relative viability ([9]; first compound 4 µM) was 0.401 and the relative viability ([10]; first compound 0.04 µM) was 0.432. The relative viability ([10]; first compound 0.1265 µM) was 0.492, the relative viability ([10]; first compound 0.4 µM) was 0.49 and the relative viability ([10]; first compound 4 µM) was 0.501. The relative viability ([11]; first compound 0.1265 µM) was 0.403, the relative viability ([11]; first compound 0.4 µM) was 0.461 and the relative viability ([11]; first compound 1.265 µM) was 0.361. The relative viability ([11]; first compound 4 µM) was 0.368, the relative viability ([12]; first compound 0.1265 µM) was 0.611 and the relative viability ([12]; first compound 0.4 µM) was 0.683. For the same compound, the relative viability ([12]; first compound 1.265 µM) was 0.66, the relative viability ([12]; first compound 4 µM) was 0.638 and the relative viability ([13]; first compound 0.04 µM) was 0.428. The relative viability ([13]; first compound 0.1265 µM) was 0.423, the relative viability ([13]; first compound 0.4 µM) was 0.494 and the relative viability ([13]; first compound 1.265 µM) was 0.418. The relative viability ([13]; first compound 4 µM) was 0.446, the relative viability ([14]; first compound 0.04 µM) was 0.398 and the relative viability ([14]; first compound 0.1265 µM) was 0.415. It also gave a relative viability ([14]; first compound 0.4 µM) of 0.499, a relative viability ([14]; first compound 1.265 µM) of 0.415 and a relative viability ([14]; first compound 4 µM) of 0.385. For the same compound, the relative viability ([15]; first compound 0.04 µM) was 0.245, the relative viability ([15]; first compound 0.1265 µM) was 0.203 and the relative viability ([15]; first compound 0.4 µM) was 0.249. For the same compound, the relative viability ([15]; first compound 1.265 µM) was 0.24, the relative viability ([15]; first compound 4 µM) was 0.213 and the relative viability ([16]; first compound 0.04 µM) was 0.139. For the same compound, the relative viability ([16]; first compound 0.1265 µM) was 0.131, the relative viability ([16]; first compound 0.4 µM) was 0.149 and the relative viability ([16]; first compound 1.265 µM) was 0.123. The relative viability ([16]; first compound 4 µM) was 0.136, the relative viability ([17]; first compound 0.04 µM) was 0.474 and the relative viability ([17]; first compound 0.1265 µM) was 0.456. For the same compound, the relative viability ([17]; first compound 0.4 µM) was 0.948, the relative viability ([17]; first compound 1.265 µM) was 0.489 and the relative viability ([17]; first compound 4 µM) was 0.489. The relative viability ([18]; first compound 0.04 µM) was 0.489, the relative viability ([18]; first compound 0.1265 µM) was 0.507 and the relative viability ([18]; first compound 0.4 µM) was 0.46. The relative viability ([18]; first compound 1.265 µM) was 0.579, the relative viability ([18]; first compound 4 µM) was 0.593 and the relative viability ([19]; first compound 0.04 µM) was 0.523. For the same compound, the relative viability ([19]; first compound 0.1265 µM) was 0.492, the relative viability ([19]; first compound 0.4 µM) was 0.581 and the relative viability ([19]; first compound 1.265 µM) was 0.473. For the same compound, the relative viability ([19]; first compound 4 µM) was 0.532, the relative viability ([20]; first compound 0.04 µM) was 0.533 and the relative viability ([20]; first compound 0.1265 µM) was 0.526. The relative viability ([20]; first compound 0.4 µM) was 0.516, the relative viability ([20]; first compound 1.265 µM) was 0.511 and the relative viability ([20]; first compound 4 µM) was 0.511. The relative viability ([21]; first compound 0.04 µM) was 0.457, the relative viability ([21]; first compound 0.1265 µM) was 0.469 and the relative viability ([21]; first compound 0.4 µM) was 0.492. It also gave a relative viability ([21]; first compound 1.265 µM) of 0.433, a relative viability ([21]; first compound 4 µM) of 0.475 and a relative viability ([22]; first compound 0.04 µM) of 0.415. For the same compound, the relative viability ([22]; first compound 0.1265 µM) was 0.34, the relative viability ([22]; first compound 0.4 µM) was 0.37 and the relative viability ([22]; first compound 1.265 µM) was 0.37. The relative viability ([22]; first compound 4 µM) was 0.386, the relative viability ([23]; first compound 0.04 µM) was 0.172 and the relative viability ([23]; first compound 0.1265 µM) was 0.252. It also gave a relative viability ([23]; first compound 0.4 µM) of 0.194, a relative viability ([23]; first compound 1.265 µM) of 0.247 and a relative viability ([23]; first compound 4 µM) of 0.21.
